A word on the mortality: it is the percentage killed. Higher therefore signals a strong lethal effect.

Drawing on patent US5481013A, “Carboxylic acid derivatives” (Ciba-Geigy Corporation, priority 1992, dated 1996), this text covers mortality, activity and pest or weed control for 25 molecules.

Holding throughout (format): in vivo
The test system of one assay is Dermanyssus gallinae. Briefly: Activity against Dermanyssus gallinae. The settings on record: 72 h, 10 ppm solution, mites in different development stages, after 3 days. The procedure:
2 to 3 ml of a solution comprising 10 ppm of active ingredient and approximately 200 mites in different development stages are placed into a glass container which is open at the top. The container is then sealed with a cottonwool ball, shaken for 10 minutes until the mites are wetted completely, and then briefly turned over so that the remaining test solution can be absorbed by the cottonwool. After 3 days, the mortality of the mites is determined by counting the dead individuals; it is given as a percentage.

The test system of assay [1] is Panonychus ulmi (OP- and carb.- resistant). Briefly: Activity against Panonychus ulmi (OP- and carb.- resistant). The settings on record: 336 h, 400 ppm spray on apple seedlings, evaluated after 14 days, read-out: percentage reduction in population (% activity). The method, then:
Apple seedlings are populated with adult females of Panonychus ulmi. After seven days, the infested plants are sprayed to drip point with an aqueous emulsion comprising 400 ppm of the test compound and grown in the greenhouse. The test is evaluated after 14 days. The percentage reduction in population (% activity) is determined by comparing the number of dead spider mites on the treated plants with those on the untreated plants. […] An activity of over 80% is shown, in particular, by compound Nos. 1.01, 2.01, 2.07, 2.08, 2.10, 2.12 to 2.16, 2.22, 2.23, 2.26, 3.01, 4.01, 4.02, 4.06, 5.01 to 5.03, 5.05, 5.06, 5.08, 5.10, 5.11, 5.15, 5.16 and 5.20 to 5.25.

The subject of another assay is Nephotettix cincticeps. As to the kind of experiment: Activity against Nephotettix cincticeps (spray on rice plants). The settings on record: 504 h, 400 ppm spray on rice plants, larvae in stages 2 and 3, evaluated 21 days later, read-out: percentage reduction in population (% activity). The method, then:
Rice plants are treated with a spray mixture prepared with an aqueous emulsion and comprising 400 ppm of the active ingredient. After the spray coating has dried on, the rice plants are populated with leaf hopper larvae in stages 2 and 3. The test is evaluated 21 days later. The percentage reduction in population (% activity) is determined by comparing the number of surviving leaf hoppers on the treated plants with those on the untreated plants.

A further assay concerns Bemisia tabaci. As to the kind of experiment: Activity against Bemisia tabaci. Particulars: 336 h, 400 ppm spray on dwarf bean plants with nymphs, evaluated 14 days after application, read-out: activity (hatching percentages vs untreated control). The method, then:
Dwarf bean plants are placed into gauze cages and populated with adult Bemisia tabaci specimens (white fly). After oviposition has taken place, all adults are removed and, 10 days later, the plants with the nymphs located thereon are treated with a spray mixture of the active ingredients to be tested (concentration 400 ppm), which has been prepared with an aqueous emulsion. The test is evaluated for hatching percentages 14 days after the active ingredient has been applied by comparison with the untreated control batches. […] An activity of over 80% is shown, in particular, by compound Nos. 1.01, 2.01 to 2.08, 2.10 to 2.16, 2.22, 2.23, 3.01, 4.01, 4.02, 4.05, 4.06, 5.02, 5.03, 5.06 to 5.08, 5.10, 5.11, 5.20, 5.21 and 6.09.

The subject of assay [2] is Nilaparvata lugens. As to the kind of experiment: Activity against Nilaparvata lugens (spray on rice plants). Particulars: 504 h, 400 ppm spray on rice plants, larvae in stages 2 and 3, evaluated after 21 days, read-out: percentage reduction in population (% activity). The procedure: Rice plants are treated with a spray mixture prepared with an aqueous emulsion and comprising 400 ppm of the active ingredient. After the spray coating has dried on, the rice plants are populated with plant hopper larvae in stages 2 and 3. The test is evaluated after 21 days. The percentage reduction in population (% activity) is determined by comparing the number of surviving plant hoppers on the treated plants with the number of plant hoppers on the untreated plants. […] An activity of over 80% is shown, in particular, by compound Nos. 1.01, 2.01 to 2.03, 2.07, 2.08, 2.10 to 2.16, 2.20, 2.22, 2.23, 2.26, 3.01, 4.01 to 4.06, 4.20, 5.01 to 5.06, 5.08, 5.10 to 5.12, 5.15, 5.16 and 5.20 to 5.25.

The test system of assay [3] is Nilaparvata lugens. As to the kind of experiment: Systemic activity against Nilaparvata lugens. The settings on record: 144 h, pots with rice plants in 400 ppm aqueous emulsion solution, larvae in stages 2 and 3, evaluated 6 days later, read-out: percentage reduction in population (% activity). The procedure: Pots containing rice plants are placed into an aqueous emulsion solution comprising 400 ppm of the active ingredient. The rice plants are subsequently populated with larvae in stages 2 and 3. The test is evaluated 6 days later. The percentage reduction in population (% activity) is determined by comparing the numbers of plant hoppers on the treated plants with those on the untreated plants.

For a further assay, the system named is Tetranychus urticae. Briefly: Activity against Tetranychus urticae. Particulars: 144 h, 400 ppm spray on young bean plants, mixed population, 6 days at 25° C, read-out: percentage reduction in population (% activity). The procedure: Young bean plants are populated with a mixed population of Tetranychus urticae and, after 1 day, sprayed with a spray mixture prepared with an aqueous emulsion and comprising 400 ppm of the active ingredient. The plants are subsequently incubated for 6 days at 25° C and then evaluated. The percentage reduction in population (% activity) is determined by comparing the number of dead eggs, larvae and adults on the treated plants with those on the untreated ones.

In assay [4] the test system is Heliothis virescens caterpillars. Briefly: Activity against Heliothis virescens caterpillars. The settings on record: 144 h, 400 ppm spray on young soybean plants, first larval stage, evaluated after 6 days, read-out: percentage reduction in population or in feeding damage (% activity). The procedure: Young soybean plants are sprayed with a spray mixture prepared with an aqueous emulsion and comprising 400 ppm of the active ingredient. After the spray coating has dried on, the soybean plants are populated with 10 Heliothis virescens in the first larval stage and placed into a plastic container. The test is evaluated after 6 days. The percentage reduction in population, or the percentage reduction in feeding damage (% activity), is determined by comparing the number of dead caterpillars and the feeding damage on the treated plants with those on the untreated plants.

The subject of another assay is adult Anthonomus grandis. As to the kind of experiment: Activity against adult Anthonomus grandis. The settings on record: 72 h, 400 ppm spray on young cotton plants, adults, evaluated after 3 days, read-out: percentage reduction in population or in feeding damage (% activity). The method, then: Young cotton plants are sprayed with a spray mixture prepared with an aqueous emulsion and comprising 400 ppm of the active ingredient. After the spray coating has dried on, the cotton plants are populated with 10 adult Anthonomus grandis and placed into a plastic container. The test is evaluated after 3 days. The percentage reduction in population, or the percentage reduction in feeding damage (% activity), is determined by comparing the number of dead beetles and the feeding damage on the treated plants with those on the untreated plants.

The next assay has as its system Heliothis virescens. Briefly: Ovicidal/larvicidal activity on Heliothis virescens. Particulars: 192 h, 400 ppm spray on eggs deposited on cotton, evaluated after 8 days, read-out: % reduction in population (hatching percentage of eggs and survival rate of caterpillars). The procedure:
Heliothis eggs which have been deposited on cotton are sprayed with a spray mixture prepared with an aqueous emulsion and comprising 400 ppm of the active ingredient. After 8 days, the hatching percentage of the eggs and the survival rate of the caterpillars are evaluated by comparing them with untreated control batches (% reduction in population).

A further assay concerns Ctenocephalides felis. Briefly: Activity against Ctenocephalides felis. Particulars: 504 h, 100 ppm in flea larvae nutrient medium, flea eggs, checked after 21 days. The method, then: 20 to 25 flea eggs are placed into a horizontally positioned 50 ml tissue culture flask into which 15 g of flea larvae nutrient medium comprising 100 ppm of the active ingredient to be tested have previously been introduced. The test flasks are incubated in an incubator at 26° to 27° C. and an atmospheric humidity of 60-70%. After 21 days, the flasks are checked for the presence of adult fleas, unhatched pupae and larvae.

`CC(OC(=O)CCCC=C(F)F)C(C)Oc1ccc(Oc2ccccc2)cc1` (stereo not shown) [Compound 2.13] yielded a mortality at 10 ppm in the assay with Dermanyssus gallinae of more than 80%.

As to `O=C(CCCC=C(F)F)OCCOc1ccc(Oc2ccccc2)cc1` [Compound 2.01], the activity at 400 ppm (in [1]; with Nephotettix cincticeps) was more than 80% each time.

As to `O=C(CCCCCCCCCC=C(F)F)OCCOc1ccc(Oc2ccccn2)cc1` [Compound 5.03], the pest or weed control at 400 ppm in the assay on Bemisia tabaci was more than 80%.

Take `O=C(CCCCCCCCCC=C(F)F)OCCOc1ccc(OCc2ncc(C(F)(F)F)cc2Cl)cc1` [Compound 5.22]: in the assay on Nephotettix cincticeps, the activity at 400 ppm was more than 80%.

For the molecule `Cc1ccc(COc2ccc(OCCOC(=O)CCCCCCCCCC=C(F)F)cc2)cc1C` [Compound 5.16], the activity at 400 ppm (with Nilaparvata lugens [2]; in the assay with Nilaparvata lugens [3]; in [1]; in the assay with Nephotettix cincticeps; in the assay on Tetranychus urticae; in [4]) was more than 80% in each case. The activity at 400 ppm in the assay with adult Anthonomus grandis is more than 80%. In addition, the pest or weed control at 400 ppm in the assay on Heliothis virescens was more than 80%.

In the case of `O=C(CCCCCCCCCC=C(F)F)NCCOc1ccc(OCc2ccc(C(F)(F)F)cn2)cc1` [Compound 5.21], the pest or weed control at 400 ppm in the assay with Bemisia tabaci was more than 80%. Moreover, the mortality at 10 ppm in the assay with Dermanyssus gallinae was more than 80%.

Molecule `O=C(CCCCCCCC=C(F)F)OCCOc1ccc(Oc2ccccn2)cc1` [Compound 4.03] had a pest or weed control at 100 ppm in the assay with Ctenocephalides felis of more than 80%.

Regarding `O=C(CCCCCCCC=C(F)F)OCCOc1ccc(OCc2ccccc2)cc1` [Compound 4.05], the activity at 400 ppm (with Nephotettix cincticeps; in [4]) was more than 80% each time. The pest or weed control at 400 ppm in the assay with Bemisia tabaci was more than 80%. The mortality at 10 ppm with Dermanyssus gallinae is more than 80%.

`N#Cc1ccc(COc2ccc(OCCOC(=O)CCCCCCCCCC=C(F)F)cc2)cc1` [Compound 5.10]: the activity at 400 ppm (in assay [1]; with adult Anthonomus grandis) was more than 80% in each case. Moreover, in the assay with Bemisia tabaci, the pest or weed control at 400 ppm was more than 80%.

As for `Cc1ccc(COc2ccc(OCCOC(=O)CCCC=C(F)F)cc2)cc1C` [Compound 2.16], in the assay with Heliothis virescens, the pest or weed control at 400 ppm is more than 80%.

On to `CC(CCCCCCCCCC(=O)OCCOc1ccc(Oc2ccccc2)cc1)=C(F)Cl` [Compound 6.09], for which the pest or weed control at 400 ppm in the assay on Bemisia tabaci and with Heliothis virescens was more than 80% throughout.

Regarding `O=C(CCCCCCCCCC=C(F)F)OCCOc1ccc(OCc2cccc([N+](=O)[O-])c2)cc1` [Compound 5.15], the activity at 400 ppm (in the assay on Nilaparvata lugens [2]; in the assay on Nilaparvata lugens [3]; in [1]; in the assay on Nephotettix cincticeps; in the assay with Tetranychus urticae; in [4]) was more than 80% in each case. In the assay with Heliothis virescens, the pest or weed control at 400 ppm was more than 80%.

As to `O=C(CCCC=C(F)F)OCCOc1ccc(Sc2ccccc2)cc1` [Compound 2.02], the activity at 400 ppm in the assay on Nephotettix cincticeps was more than 80%.

As to `O=C(CCCC=C(F)F)OCCOc1ccc(OCc2ccc(Cl)cc2)cc1` [Compound 2.08], the activity at 400 ppm (with Nilaparvata lugens [2]; in assay [1]; in the assay with adult Anthonomus grandis) was more than 80% throughout.

As to `N#Cc1ccc(COc2ccc(OCCOC(=O)CCCC=C(F)F)cc2)cc1` [Compound 2.10], the activity at 400 ppm (in assay [1]; in the assay on Tetranychus urticae) was more than 80% each time.

Regarding `O=C(CCCC=C(F)F)OCCOc1ccc(Oc2ccccn2)cc1` [Compound 2.03], in the assay with Nephotettix cincticeps, the activity at 400 ppm was more than 80%.

`CC(COC(=O)CCCCCCCCCC=C(F)F)Oc1ccc(Oc2ccccc2)cc1` (stereo not shown) [Compound 5.06]: in [1], the activity at 400 ppm was more than 80%.

As to `O=C(CCCC=C(F)F)OCCOc1ccc(OCc2ccc(F)cc2)cc1` [Compound 2.07], the activity at 400 ppm (in the assay on Nilaparvata lugens [2]; in assay [1]; in the assay with Nephotettix cincticeps; with adult Anthonomus grandis) was more than 80% throughout.

On to `Cc1ccc(COc2ccc(OCCOC(=O)CCCCCCCCCC=C(F)F)cc2)cc1` [Compound 5.11], for which the activity at 400 ppm in assay [1] is more than 80%. Besides, in the assay with Bemisia tabaci, the pest or weed control at 400 ppm is more than 80%.

With `CC(COC(=O)CCCCCCCCCC=C(F)F)Oc1ccc(Sc2ccccc2)cc1` (stereo not shown) [Compound 5.25], the activity at 400 ppm (in the assay on Nephotettix cincticeps; in [4]) was more than 80% each time.

In the case of `O=C(CCCCCCCCCC=C(F)F)OCCOc1ccc(OCc2cccc(Cl)c2)cc1` [Compound 5.20], in the assay with Nephotettix cincticeps, the activity at 400 ppm was more than 80%. For the same molecule, in the assay with Bemisia tabaci, the pest or weed control at 400 ppm was more than 80%.

For the molecule `O=C(CCCC=C(F)F)NCCOc1ccc(Oc2ccccc2)cc1` [Compound 2.20], the activity at 400 ppm with Nilaparvata lugens [2] and with Nilaparvata lugens [3] was more than 80% each time.

For the molecule `CC(COC(=O)CCCC=C(F)F)Oc1ccc(Oc2ccccc2)cc1` (stereo not shown) [Compound 2.06], the activity at 400 ppm in the assay with Nephotettix cincticeps was more than 80%. Further, the mortality at 10 ppm in the assay with Dermanyssus gallinae is more than 80%.

Regarding `O=C(CCCC=C(F)F)OCCOc1ccc(OCc2cccc([N+](=O)[O-])c2)cc1` [Compound 2.15], the pest or weed control at 400 ppm with Heliothis virescens is more than 80%.

For `O=C(CCCCCCCC=C(F)F)NCCOc1ccc(Oc2ccccc2)cc1` [Compound 4.20], the activity at 400 ppm (in the assay with Nilaparvata lugens [2]; in the assay with Nilaparvata lugens [3]; in the assay with Tetranychus urticae; in [4]) was more than 80% in each case. Besides, the pest or weed control at 400 ppm in the assay with Heliothis virescens is more than 80%.
